The source of these data is patent US20260125346A1, “Isoquinolinone Derivatives and 4H-Quinolizinone Derivatives and Pharmaceutical Compositions Thereof for the Treatment of Disease” (BeOne Medicines I GmbH, priority 2023, published 2026).

Experiment [1] concerns WT cell line SK-BR-3. In words: Phospho-AKT (Ser473) Inhibition Assay (HTRF), SK-BR-3. In kind it is cell-based. The note with it: Homo sapiens; SK-BR-3, 1 hour treatment; read-out: p-AKT Inhibition assay (S473) IC50 SK-BR-3. Put shortly:
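SK-BR-3 (PI3Kα WT) cells seeded overnight in MEM with insulin, then treated 1 h with 11-point 1:3 dilutions (10 μM to 0.1 nM, 0.1% DMSO). Lysates read for phospho-AKT Ser473 by HTRF after 4 h antibody incubation at room temperature. IC50 from 4-parameter fit, % inhibition normalized to DMSO (max) and 10 μM GDC0077 (min).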
(In general: In TR-FRET formats the signal depends on donor and acceptor labels being close together.)

Experiment [2] has as its target PI3Kα (p110/p85) kinase (wild type, "WT") (Homo sapiens, UniProt P42336). Description: PI3Kα (p110/p85) kinase ADP-Glo Assay. In kind it is biochemical. The note with it: 25 uM ATP. Put shortly:
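IC50 values come from a four-parameter logistic fit of ADP-Glo chemiluminescence, reflecting ADP formed. Enzyme, lipid substrate and […] compound were preincubated 30 min at room temperature, then 25 µM ATP was added for a 120 min reaction in 50 mM HEPES pH7.5, 3 mM MgCl2.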

Experiment [3] has as its system WT cell line SK-BR-3. In words: Cell Proliferation Assay (CellTiter-Glo), SK-BR-3. The following applies: Homo sapiens, 72 h; SK-BR-3, 3 days treatment. In kind it is cell-based. Put shortly: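 SK-BR-3 cells treated for 3 days with compound in a 9-point series, final concentrations 10 M to 1 nM in 0.1% DMSO. Viability read by CellTiter-Glo luminescence. Relative IC50 from percent inhibition versus medium-only and DMSO controls, four-parameter logistic fit.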

SMILES strings stand for the structures.

PI3Kα (p110/p85) kinase (wild type, "WT"), sequence (P42336 whole entry): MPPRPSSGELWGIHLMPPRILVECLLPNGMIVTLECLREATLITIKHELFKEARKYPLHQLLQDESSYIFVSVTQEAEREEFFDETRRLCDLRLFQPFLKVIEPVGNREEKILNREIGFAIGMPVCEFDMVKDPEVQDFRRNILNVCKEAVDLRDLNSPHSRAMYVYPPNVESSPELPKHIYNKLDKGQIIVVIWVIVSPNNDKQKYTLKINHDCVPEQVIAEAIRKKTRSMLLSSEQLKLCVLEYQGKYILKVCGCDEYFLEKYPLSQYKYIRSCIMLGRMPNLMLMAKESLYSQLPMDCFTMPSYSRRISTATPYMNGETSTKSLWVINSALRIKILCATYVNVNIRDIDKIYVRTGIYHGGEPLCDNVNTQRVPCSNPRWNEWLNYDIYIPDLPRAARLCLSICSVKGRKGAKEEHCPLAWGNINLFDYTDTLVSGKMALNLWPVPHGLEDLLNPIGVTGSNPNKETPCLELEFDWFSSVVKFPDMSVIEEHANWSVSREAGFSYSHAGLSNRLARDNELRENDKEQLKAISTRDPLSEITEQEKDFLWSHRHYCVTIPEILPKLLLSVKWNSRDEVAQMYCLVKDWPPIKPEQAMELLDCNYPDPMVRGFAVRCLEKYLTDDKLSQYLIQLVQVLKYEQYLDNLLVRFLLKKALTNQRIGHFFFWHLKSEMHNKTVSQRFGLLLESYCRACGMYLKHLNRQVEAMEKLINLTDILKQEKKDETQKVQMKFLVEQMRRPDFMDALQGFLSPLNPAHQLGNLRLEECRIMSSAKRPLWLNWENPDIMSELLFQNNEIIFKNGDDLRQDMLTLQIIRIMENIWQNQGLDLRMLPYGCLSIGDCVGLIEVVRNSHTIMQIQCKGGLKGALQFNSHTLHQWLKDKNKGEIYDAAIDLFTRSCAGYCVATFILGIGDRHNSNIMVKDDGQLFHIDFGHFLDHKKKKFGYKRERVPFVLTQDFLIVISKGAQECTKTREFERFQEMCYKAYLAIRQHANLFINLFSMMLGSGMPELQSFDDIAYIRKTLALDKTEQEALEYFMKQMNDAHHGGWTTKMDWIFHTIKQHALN
PI3Kα (p110/p85) kinase (wild type, "WT"), sequence (P27986 whole entry partner): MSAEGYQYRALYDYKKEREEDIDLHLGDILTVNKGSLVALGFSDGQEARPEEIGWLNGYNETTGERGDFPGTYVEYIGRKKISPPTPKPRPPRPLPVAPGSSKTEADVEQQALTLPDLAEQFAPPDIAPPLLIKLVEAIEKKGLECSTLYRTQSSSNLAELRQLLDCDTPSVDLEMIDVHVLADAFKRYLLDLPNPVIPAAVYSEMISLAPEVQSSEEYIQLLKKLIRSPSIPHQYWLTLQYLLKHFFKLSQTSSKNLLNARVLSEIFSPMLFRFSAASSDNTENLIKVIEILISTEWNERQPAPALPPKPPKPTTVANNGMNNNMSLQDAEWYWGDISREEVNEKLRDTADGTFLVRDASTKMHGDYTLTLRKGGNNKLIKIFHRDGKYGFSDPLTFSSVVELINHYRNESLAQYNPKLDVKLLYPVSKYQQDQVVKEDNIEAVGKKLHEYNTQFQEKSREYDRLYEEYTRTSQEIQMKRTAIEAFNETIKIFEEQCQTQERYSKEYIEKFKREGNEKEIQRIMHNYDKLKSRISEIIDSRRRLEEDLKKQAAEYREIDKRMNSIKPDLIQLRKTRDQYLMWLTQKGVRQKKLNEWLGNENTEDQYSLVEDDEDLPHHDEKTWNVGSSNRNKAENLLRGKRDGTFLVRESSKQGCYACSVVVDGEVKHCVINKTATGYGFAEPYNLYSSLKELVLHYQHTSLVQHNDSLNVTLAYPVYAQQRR

Broadly, the IC50 is the concentration needed to halve the response being measured. `Cc1cc([C@@H](C)Nc2ccccc2C(=O)O)c2cc(-c3cnc(C(C)(C)O)nc3)n(C)c(=O)c2c1` [Example 67, (R)-2-((1-(3-(2-(2-hydroxypropan-2-yl)pyrimidin-5-yl)-2,7-dimethyl-1-oxo-1,2-dihydroisoquinolin-5-yl)ethyl)amino)benzoic acid]: the IC50 in the experiment on WT cell line SK-BR-3 [1] was over 10 µM; in experiment [2], 13.6 µM; in the experiment on WT cell line SK-BR-3 [3], over 10 µM.

Regarding `Cc1cc(C(C)Nc2ccccc2C(=O)O)c2cc(-c3ccc(F)cc3)n(C3CCOC3)c(=O)c2c1` (stereo not drawn) [Example 69, 2-((1-(3-(4-fluorophenyl)-7-methyl-1-oxo-2-(tetrahydrofuran-3-yl)-1,2-dihydroisoquinolin-5-yl)ethyl)amino)benzoic acid], the IC50 is over 10 µM with WT cell line SK-BR-3 [1], 18.8 µM in experiment [2] and over 10 µM with WT cell line SK-BR-3 [3].

Consider `Cc1cc(C(C)Nc2ccccc2C(=O)O)c2cc(-c3ccc4c(c3)CN(C)C4=O)n(C)c(=O)c2c1` (stereo not drawn) [Example 70, 2-((1-(2,7-dimethyl-3-(2-methyl-1-oxoisoindolin-5-yl)-1-oxo-1,2-dihydroisoquinolin-5-yl)ethyl)amino)benzoic acid], for which the IC50 in the experiment on WT cell line SK-BR-3 [1] was over 10 µM; in experiment [2], 21.1 µM; in the experiment with WT cell line SK-BR-3 [3], over 10 µM.

Take `Cc1cc(C(C)Nc2ccccc2C(=O)O)c2cc(-c3ccc(F)cc3)n(-c3nccs3)c(=O)c2c1` (stereo not drawn) [Example 71, 2-((1-(3-(4-fluorophenyl)-7-methyl-1-oxo-2-(thiazol-2-yl)-1,2-dihydroisoquinolin-5-yl)ethyl)amino)benzoic acid]: the IC50 was 5.59 µM with WT cell line SK-BR-3 [1], 14.2 µM in experiment [2] and over 10 µM in the experiment with WT cell line SK-BR-3 [3].

Consider `Cc1cc(C(C)Nc2ccccc2C(=O)O)c2cc(-c3ccc(N4CCC(C)(O)CC4)nc3)n(C)c(=O)c2c1` (stereo not drawn) [Example 72, 2-((1-(3-(6-(4-hydroxy-4-methylpiperidin-1-yl)pyridin-3-yl)-2,7-dimethyl-1-oxo-1,2-dihydroisoquinolin-5-yl)ethyl)amino)benzoic acid], for which the IC50 in the experiment with WT cell line SK-BR-3 [1] was over 10 µM; in experiment [2], 20.5 µM; in the experiment with WT cell line SK-BR-3 [3], over 10 µM.

Regarding `Cc1cc(C(C)Nc2ccccc2C(=O)O)c2cc(-c3ccc(C4(O)CCOCC4)cc3)n(C)c(=O)c2c1` (stereo not drawn) [Example 73, 2-((1-(3-(4-(4-hydroxytetrahydro-2H-pyran-4-yl)phenyl)-2,7-dimethyl-1-oxo-1,2-dihydroisoquinolin-5-yl)ethyl)amino)benzoic acid], the IC50 with WT cell line SK-BR-3 [1] was over 10 µM; in experiment [2] it was 26.1 µM; in the experiment with WT cell line SK-BR-3 [3], over 10 µM.

As for `COC1(c2ccc(-c3cc4c(C(C)Nc5ccccc5C(=O)O)cc(C)cc4c(=O)n3C)cc2)CCOCC1` (stereo not drawn) [Example 74, 2-((1-(3-(4-(4-methoxytetrahydro-2H-pyran-4-yl)phenyl)-2,7-dimethyl-1-oxo-1,2-dihydroisoquinolin-5-yl)ethyl)amino)benzoic acid], the IC50 is 4.39 µM in the experiment on WT cell line SK-BR-3 [1], 13.1 µM in experiment [2] and over 10 µM with WT cell line SK-BR-3 [3].

Take `Cc1cc(C(C)Nc2ccccc2C(=O)O)c2cc(-c3ccc4c(c3)C(=O)N(C)C4)n(C)c(=O)c2c1` (stereo not drawn) [Example 75, 2-((1-(2,7-dimethyl-3-(2-methyl-3-oxoisoindolin-5-yl)-1-oxo-1,2-dihydroisoquinolin-5-yl)ethyl)amino)benzoic acid]: the figures for the IC50 (in the experiment on WT cell line SK-BR-3 [1]; in experiment [2]; in the experiment on WT cell line SK-BR-3 [3]) were over 10 µM, 31.4 µM and over 10 µM, respectively.

With `Cc1cc(C(C)Nc2ccccc2C(=O)O)c2cc(C3=CCN(c4ccccc4)C3)n(C)c(=O)c2c1` (stereo not drawn) [Example 76, 2-((1-(2,7-dimethyl-1-oxo-3-(1-phenyl-2,5-dihydro-1H-pyrrol-3-yl)-1,2-dihydroisoquinolin-5-yl)ethyl)amino)benzoic acid], the half-inhibitory concentration (IC50) is 5.34 µM in the experiment with WT cell line SK-BR-3 [1], 11.8 µM in experiment [2] and over 10 µM in the experiment on WT cell line SK-BR-3 [3].

For the compound `Cc1cc(C(C)Nc2ccccc2C(=O)O)c2cc(-c3ccn(-c4ccccc4)c3)n(C)c(=O)c2c1` (stereo not drawn) [Example 77, 2-((1-(2,7-dimethyl-1-oxo-3-(1-phenyl-1H-pyrrol-3-yl)-1,2-dihydroisoquinolin-5-yl)ethyl)amino)benzoic acid], the half-inhibitory concentration (IC50) was 2.04 µM in the experiment with WT cell line SK-BR-3 [1], 6.95 µM in experiment [2] and over 10 µM in the experiment with WT cell line SK-BR-3 [3].

Turning to `Cc1cc(C(C)Nc2ccccc2C(=O)O)c2cc(-c3ccc(CN4CCOCC4)nc3)n(C)c(=O)c2c1` (stereo not drawn) [Example 78, 2-((1-(2,7-dimethyl-3-(6-(morpholinomethyl)pyridin-3-yl)-1-oxo-1,2-dihydroisoquinolin-5-yl)ethyl)amino)benzoic acid], the results for the half-inhibitory concentration (IC50) (in the experiment on WT cell line SK-BR-3 [1]; in experiment [2]; with WT cell line SK-BR-3 [3]) were over 10 µM, 65.9 µM and over 10 µM, respectively.

`Cc1cc(C(C)Nc2ccccc2C(=O)O)c2cc(-c3ccc(P(C)(C)=O)cc3)n(C)c(=O)c2c1` (stereo not drawn) [Example 79, 2-((1-(3-(4-(dimethylphosphoryl)phenyl)-2,7-dimethyl-1-oxo-1,2-dihydroisoquinolin-5-yl)ethyl)amino)benzoic acid]: the half-maximal inhibitory concentration (IC50) was over 10 µM in the experiment with WT cell line SK-BR-3 [1], 59.2 µM in experiment [2] and over 10 µM with WT cell line SK-BR-3 [3].

Turning to `Cc1cc(C(C)Nc2ccccc2C(=O)O)c2cc(C#Cc3cnn(C)c3)n(C)c(=O)c2c1` (stereo not drawn) [Example 80, 2-((1-(2,7-dimethyl-3-((1-methyl-1H-pyrazol-4-yl)ethynyl)-1-oxo-1,2-dihydroisoquinolin-5-yl)ethyl)amino)benzoic acid], the results for the IC50 (in the experiment on WT cell line SK-BR-3 [1]; in experiment [2]; with WT cell line SK-BR-3 [3]) were 3.08 µM, 3.28 µM and over 10 µM, respectively.

As for `CCn1c(-c2ccc(F)cc2)cc2c(C(C)Nc3ccc(Cl)nc3C(=O)O)cc(C)cc2c1=O` (stereo not drawn) [Example 81, 6-chloro-3-((1-(2-ethyl-3-(4-fluorophenyl)-7-methyl-1-oxo-1,2-dihydroisoquinolin-5-yl)ethyl)amino)picolinic acid], the IC50 in the experiment with WT cell line SK-BR-3 [1] was 1.87 µM; in experiment [2], 3.78 µM; with WT cell line SK-BR-3 [3], over 10 µM.

For the compound `Cc1cc(C(C)Nc2ccccc2S(C)(=O)=O)c2cc(-c3ccccc3)n(C)c(=O)c2c1` (stereo not drawn) [Example 82, 2,7-dimethyl-5-(1-((2-(methylsulfonyl)phenyl)amino)ethyl)-3-phenylisoquinolin-1(2H)-one], the results for the IC50 (in the experiment with WT cell line SK-BR-3 [1]; in experiment [2]; in the experiment on WT cell line SK-BR-3 [3]) were 2.02 µM, 3.31 µM and over 10 µM, respectively.

As for `Cc1cc(C(C)Nc2ccccc2C(=O)O)c2cc(-c3ccc(N4CCCC4)cc3)n(C)c(=O)c2c1` (stereo not drawn) [Example 84, 2-((1-(2,7-dimethyl-1-oxo-3-(4-(pyrrolidin-1-yl)phenyl)-1,2-dihydroisoquinolin-5-yl)ethyl)amino)benzoic acid], the results for the 50% inhibitory concentration (IC50) (in the experiment on WT cell line SK-BR-3 [1]; in experiment [2]; with WT cell line SK-BR-3 [3]) were 3.12 µM, 14.6 µM and over 10 µM, respectively.

Turning to `Cc1cc(C(C)Nc2ccccc2C(=O)O)c2cc(-c3ccc(C(F)(F)F)nc3)n(C)c(=O)c2c1` (stereo not drawn) [Example 86, 2-((1-(2,7-dimethyl-1-oxo-3-(6-(trifluoromethyl)pyridin-3-yl)-1,2-dihydroisoquinolin-5-yl)ethyl)amino)benzoic acid], the IC50 was over 10 µM in the experiment on WT cell line SK-BR-3 [1], 15.1 µM in experiment [2] and over 10 µM with WT cell line SK-BR-3 [3].

For the compound `Cc1cc(C(C)Nc2ccccc2C(=O)O)c2cc(-c3cnn(CC45CC6C[C@H](C4)C[C@H](C6)C5)c3C)n(C)c(=O)c2c1` (stereo partly drawn) [Example 87, 2-((1-(3-(1-(((3S,5S)-adamantan-1-yl)methyl)-5-methyl-1H-pyrazol-4-yl)-2,7-dimethyl-1-oxo-1,2-dihydroisoquinolin-5-yl)ethyl)amino)benzoic acid], the IC50 in the experiment on WT cell line SK-BR-3 [1] was 2.84 µM; in experiment [2], 35.4 µM; in the experiment on WT cell line SK-BR-3 [3], over 10 µM.

`Cc1cc(C(C)Nc2ccccc2C(=O)O)c2cc(C#Cc3ccn(C)n3)n(C)c(=O)c2c1` (stereo not drawn) [Example 88, 2-((1-(2,7-dimethyl-3-((1-methyl-1H-pyrazol-3-yl)ethynyl)-1-oxo-1,2-dihydroisoquinolin-5-yl)ethyl)amino)benzoic acid]: the IC50 in the experiment with WT cell line SK-BR-3 [1] is 1.94 µM; in experiment [2], 1.75 µM; with WT cell line SK-BR-3 [3] it was over 10 µM.

On to `Cc1cc(C(C)Nc2ccccc2C(=O)O)c2cc(C#CC3(O)CCCC3)n(C)c(=O)c2c1` (stereo not drawn) [Example 89, 2-((1-(3-((1-hydroxycyclopentyl)ethynyl)-2,7-dimethyl-1-oxo-1,2-dihydroisoquinolin-5-yl)ethyl)amino)benzoic acid], for which the IC50 was 6.84 µM with WT cell line SK-BR-3 [1], 6.84 µM in experiment [2] and over 10 µM with WT cell line SK-BR-3 [3].

As to `Cc1cc(C(C)Nc2ccccc2C(=O)O)c2cc(C#Cc3cnn(-c4ccccc4)c3)n(C)c(=O)c2c1` (stereo not drawn) [Example 94, 2-((1-(2,7-dimethyl-1-oxo-3-((1-phenyl-1H-pyrazol-4-yl)ethynyl)-1,2-dihydroisoquinolin-5-yl)ethyl)amino)benzoic acid], the half-maximal inhibitory concentration (IC50) in the experiment on WT cell line SK-BR-3 [1] is over 10 µM; in experiment [2], over 100 µM; with WT cell line SK-BR-3 [3], over 10 µM.

As to `Cc1cc(C(C)Nc2ccccc2C(=O)O)c2cc(-c3ccc(F)cc3)n(C3COC3)c(=O)c2c1` (stereo not drawn) [Example 95, 2-((1-(3-(4-fluorophenyl)-7-methyl-2-(oxetan-3-yl)-1-oxo-1,2-dihydroisoquinolin-5-yl)ethyl)amino)benzoic acid], the values for the IC50 (in the experiment with WT cell line SK-BR-3 [1]; in experiment [2]; with WT cell line SK-BR-3 [3]) were 1.36 µM, 4.33 µM and over 10 µM, respectively.
